Data from patent US20250186408A1, “TREATMENT OF PHARMACORESISTANT EPILEPSY” (Katholieke Universiteit Leuven, priority 2021, published 2025).
Read-outs that look alike come from different tables or passages of the source.

How the values were obtained:
[1] = molecular target: T1, EDNRA (Homo sapiens, UniProt P25101); test: Calcium Flux EDNRA Agonist; type: cell-based; conditions: for EC50: read-out: RC50, result type EC50; for Emax: read-out: Max response
T1 sequence (P25101 21-427): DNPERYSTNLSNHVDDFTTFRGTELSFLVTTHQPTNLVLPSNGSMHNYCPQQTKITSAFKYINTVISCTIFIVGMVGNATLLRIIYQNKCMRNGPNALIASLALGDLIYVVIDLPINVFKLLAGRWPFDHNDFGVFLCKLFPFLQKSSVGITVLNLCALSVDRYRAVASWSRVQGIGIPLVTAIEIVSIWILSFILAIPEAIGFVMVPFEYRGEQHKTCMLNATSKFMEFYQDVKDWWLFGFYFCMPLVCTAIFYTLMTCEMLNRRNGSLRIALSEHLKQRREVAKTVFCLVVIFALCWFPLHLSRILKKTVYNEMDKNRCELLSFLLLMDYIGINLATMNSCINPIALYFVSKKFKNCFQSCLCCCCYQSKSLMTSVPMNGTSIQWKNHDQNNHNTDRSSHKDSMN
Experimental: (§1) (≤0.2% DMSO concentration). Assays were performed in 1× dye loading buffer consisting of 1× Dye (DiscoverX, Calcium No Wash^PLUS kit, Catalog No. 90-0091), 1× Additive A and 2.5 mM Probenecid in HBSS/20 mM HEPES. Probenecid was prepared fresh. Prior to testing, media was aspirated from cells and replaced with 25 μL dye loading buffer. Cells were incubated for 45 min at 37° C. and then 20 min at RT. For agonist determination, 25 μL of 2× compound in HBSS/20 mM HEPES was added using a FLIPR Tetra (MDS). […] 25 μL of 2× sample was added and cells were incubated for 30 min at RT in the dark to equilibrate plate temperature. After incubation, antagonist determination was initiated by addition of 25 μL of 1× compound with 3×EC80 agonist using FLIPR. For both agonist and antagonist formats, activity was measure on a FLIPR Tetra (MDS). Calcium mobilization was monitored for 2 min with a 5 sec baseline read.
(§2) FLIPR read—Area under the curve, was calculated for the entire 2 min read.

[2] = molecular target: HRH1 (Homo sapiens, UniProt P35367); test: Calcium Flux HRH1 Agonist; type: cell-based; conditions: for Emax: read-out: Max response
Experimental: as §1, §2

[3] = molecular target: ADRB2 (Homo sapiens, UniProt P07550); test: cAMP ADRB2 Agonist; type: cell-based; conditions: for Emax: read-out: Max response
Experimental: (§3) cAMP Hunter cell lines were expanded from freezer stocks. […] For Gi agonist determination, cells were incubated with sample in the presence of EC80 forskolin to induce response. For both conditions, media was aspirated from cells and replaced with 15 μL 2:1 HBSS/10 mM HEPES:cAMP XS+ Ab reagent. […] 5 μL of 4× sample was added to cells and incubated at 37° C. or room temperature (RT) for 30 or 60 min. Final assay vehicle concentration was 1%. […] Media was aspirated from cells and replaced with 10 μL 1:1 HBSS/HEPES:cAMP XS+ Ab reagent. […] For Gi coupled GPCRs, EC80 forskolin was included. […] Compound activity was analyzed using CBIS data analysis suite (ChemInnovation, CA).

[4] = molecular target: HRH2 (Homo sapiens, UniProt P25021); test: cAMP HRH2 Agonist; type: cell-based; conditions: for Emax: read-out: Max response
Experimental: as §3

[5] = molecular target: ADRB1 (Homo sapiens, UniProt P08588); test: cAMP ADRB1 Antagonist; type: cell-based; conditions: for Emax: read-out: Max response
Experimental: as §3

[6] = molecular target: GABAA (Homo sapiens, UniProt P14867+P18507+P47870); test: Ion Channel GABAA Opener; type: cell-based; conditions: read-out: Max response
[7] = molecular target: OPRM1 (Homo sapiens, UniProt P35372); test: cAMP OPRM1 Agonist; conditions: for Emax: OPRM1, read-out: Max response
Experimental: (§4) In vitro pharmacological profiling of compounds was done against 78 functional assays for 47 common off-targets (30) by Eurofins DiscoverX Corporation (Fremont, CA, USA) using their SAFETYscan E/IC50 ELECT service (Cat Ref 87-1003DR, Safety47 Panel Dose Response). […] Compounds were tested in a range of 10 concentrations, following a 3-fold serial dilution, starting from 10 μM.
(§5) cAMP Hunter cell lines were expanded from freezer stocks. Prior to testing, cells were seeded in a total volume of 20 μL into white walled 384-well microplates and incubated at 37° C. cAMP modulation was determined using the DiscoverX HitHunter cAMP XS+ assay. For Gs agonist determination, cells were incubated with sample to induce response. For Gi agonist determination, cells were incubated with sample in the presence of EC80 forskolin to induce response. For both conditions, media was aspirated from cells and replaced with 15 μL 2:1 HBSS/10 mM HEPES:cAMP XS+ Ab reagent. Intermediate dilution of sample stocks was performed to generate 4× sample in assay buffer (containing 4×EC80 forskolin in the case of antagonist determination). 5 μL of 4× sample was added to cells and incubated at 37° C. or room temperature (RT) for 30 or 60 min. Final assay vehicle concentration was 1%. For antagonist determination, cells were pre-incubated with sample followed by agonist challenge at the EC80 concentration. Media was aspirated from cells and replaced with 10 μL 1:1 HBSS/HEPES:cAMP XS+ Ab reagent. 5 μL of 4× compound was added to the cells and incubated at 37° C. or RT for 30 min. 5 μL of 4×EC80 agonist was added to the cells and incubated at 37° C. or RT for 30 or 60 min. For Gi coupled GPCRs, EC80 forskolin was included. […] Microplates were read following signal generation with a PerkinElmer Envision™ instrument for chemiluminescent signal detection. Compound activity was analyzed using CBIS data analysis suite (ChemInnovation, CA). For Gs agonist mode assays, percentage activity was calculated using the following equation:

[8] = molecular target: T2, ADRA2A (Homo sapiens, UniProt P08913); test: cAMP ADRA2A Agonist; conditions: for Emax: read-out: Max response
T2 sequence (P08913 1-465): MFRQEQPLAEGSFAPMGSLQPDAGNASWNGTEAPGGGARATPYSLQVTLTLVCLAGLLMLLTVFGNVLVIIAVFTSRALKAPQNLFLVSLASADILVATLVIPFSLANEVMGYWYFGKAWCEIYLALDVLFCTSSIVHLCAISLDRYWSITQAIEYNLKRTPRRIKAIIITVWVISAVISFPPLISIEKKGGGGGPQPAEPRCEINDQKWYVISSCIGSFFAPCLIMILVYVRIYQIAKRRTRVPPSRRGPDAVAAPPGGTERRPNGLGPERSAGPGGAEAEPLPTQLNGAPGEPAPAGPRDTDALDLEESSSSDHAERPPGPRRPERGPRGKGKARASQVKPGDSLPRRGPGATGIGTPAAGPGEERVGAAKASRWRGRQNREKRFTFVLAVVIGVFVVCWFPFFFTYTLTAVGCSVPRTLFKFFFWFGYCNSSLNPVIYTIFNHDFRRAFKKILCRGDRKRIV
Experimental: (§6) In vitro pharmacological profiling of compounds was done against 78 functional assays for 47 common off-targets (30) by Eurofins DiscoverX Corporation (Fremont, CA, USA) using their SAFETYscan E/IC50 ELECT service (Cat Ref 87-1003DR, Safety47 Panel Dose Response). […] Compounds were tested in a range of 10 concentrations, following a 3-fold serial dilution, starting from 10 μM. The assays were performed utilizing the PathHunter enzyme fragment complementation (EFC) technology, FLIPR®-based cellular screening assays, and KINOMEscan kinase binding assays.
cAMP Hunter cell lines were expanded from freezer stocks. Prior to testing, cells were seeded in a total volume of 20 μL into white walled 384-well microplates and incubated at 37° C. cAMP modulation was determined using the DiscoverX HitHunter cAMP XS+ assay. For Gs agonist determination, cells were incubated with sample to induce response. For Gi agonist determination, cells were incubated with sample in the presence of EC80 forskolin to induce response. For both conditions, media was aspirated from cells and replaced with 15 μL 2:1 HBSS/10 mM HEPES:cAMP XS+ Ab reagent. Intermediate dilution of sample stocks was performed to generate 4× sample in assay buffer (containing 4×EC80 forskolin in the case of antagonist determination). 5 μL of 4× sample was added to cells and incubated at 37° C. or room temperature (RT) for 30 or 60 min. Final assay vehicle concentration was 1%. For antagonist determination, cells were pre-incubated with sample followed by agonist challenge at the EC80 concentration. Media was aspirated from cells and replaced with 10 μL 1:1 HBSS/HEPES:cAMP XS+ Ab reagent. 5 μL of 4× compound was added to the cells and incubated at 37° C. or RT for 30 min. 5 μL of 4×EC80 agonist was added to the cells and incubated at 37° C. or RT for 30 or 60 min. For Gi coupled GPCRs, EC80 forskolin was included. […] Microplates were read following signal generation with a PerkinElmer Envision™ instrument for chemiluminescent signal detection. Compound activity was analyzed using CBIS data analysis suite (ChemInnovation, CA).

[9] = molecular target: T3, CHRM2 (Homo sapiens, UniProt P08172); test: cAMP CHRM2 Antagonist; conditions: for Emax: read-out: Max response
T3 sequence (P08172 1-466): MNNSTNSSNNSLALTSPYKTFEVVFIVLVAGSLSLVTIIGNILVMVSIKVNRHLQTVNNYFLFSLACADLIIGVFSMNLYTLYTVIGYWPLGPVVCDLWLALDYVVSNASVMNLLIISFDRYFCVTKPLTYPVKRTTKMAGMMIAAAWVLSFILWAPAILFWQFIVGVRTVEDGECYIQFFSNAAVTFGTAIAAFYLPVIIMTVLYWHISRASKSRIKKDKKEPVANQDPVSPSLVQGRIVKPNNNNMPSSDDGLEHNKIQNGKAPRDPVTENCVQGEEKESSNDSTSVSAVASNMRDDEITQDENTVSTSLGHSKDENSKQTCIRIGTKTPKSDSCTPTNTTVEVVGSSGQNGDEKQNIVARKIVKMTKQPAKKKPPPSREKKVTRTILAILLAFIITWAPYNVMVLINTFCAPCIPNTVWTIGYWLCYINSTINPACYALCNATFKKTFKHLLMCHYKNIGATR
Experimental: as §4, §5

[10] = molecular target: T2, ADRA2A; test: cAMP ADRA2A Antagonist; conditions: for Emax: read-out: Max response
Experimental: as §4, §5

[11] = molecular target: CHRM3 (Homo sapiens, UniProt P20309); test: Calcium Flux CHRM3 Agonist; conditions: for Emax: read-out: Max response
Chain of CHRM3 (P20309 whole entry): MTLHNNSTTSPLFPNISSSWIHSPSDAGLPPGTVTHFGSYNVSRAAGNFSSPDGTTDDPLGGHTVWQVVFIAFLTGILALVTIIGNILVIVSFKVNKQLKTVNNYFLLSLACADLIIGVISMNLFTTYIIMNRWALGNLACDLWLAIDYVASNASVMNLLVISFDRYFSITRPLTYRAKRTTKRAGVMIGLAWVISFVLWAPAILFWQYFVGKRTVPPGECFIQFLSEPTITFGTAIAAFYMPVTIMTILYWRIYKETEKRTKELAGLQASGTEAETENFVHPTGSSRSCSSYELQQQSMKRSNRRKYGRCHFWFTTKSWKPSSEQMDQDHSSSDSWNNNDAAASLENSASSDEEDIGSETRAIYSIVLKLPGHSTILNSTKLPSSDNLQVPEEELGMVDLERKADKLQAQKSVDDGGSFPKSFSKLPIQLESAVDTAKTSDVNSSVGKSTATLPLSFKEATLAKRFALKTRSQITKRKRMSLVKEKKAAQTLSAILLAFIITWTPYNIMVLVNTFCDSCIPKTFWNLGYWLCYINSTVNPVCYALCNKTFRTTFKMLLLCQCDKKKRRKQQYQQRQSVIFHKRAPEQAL
Experimental: as §6
Prior to testing, cells (10,000 cells/well) were expanded from freezer stocks and seeded into a total volume of 50 μL into black walled, clear-bottom, Poly-D-lysine coated 384-well microplates and incubated at 37° C. […] Assays were performed in 1× dye loading buffer consisting of 1× Dye (DiscoverX, Calcium No Wash^PLUS kit, Catalog No. 90-0091), 1× Additive A and 2.5 mM Probenecid in HBSS/20 mM HEPES. Probenecid was prepared fresh. Prior to testing, media was aspirated from cells and replaced with 25 μL dye loading buffer. Cells were incubated for 45 min at 37° C. and then 20 min at RT. For agonist determination, 25 μL of 2× compound in HBSS/20 mM HEPES was added using a FLIPR Tetra (MDS). For antagonist determination, cells were pre-incubated with sample followed by agonist challenge at the EC80 concentration. 25 μL of 2× sample was added and cells were incubated for 30 min at RT in the dark to equilibrate plate temperature. After incubation, antagonist determination was initiated by addition of 25 μL of 1× compound with 3×EC80 agonist using FLIPR. For both agonist and antagonist formats, activity was measure on a FLIPR Tetra (MDS). Calcium mobilization was monitored for 2 min with a 5 sec baseline read.
FLIPR read—Area under the curve, was calculated for the entire 2 min read. Compound activity was analysed using CBIS data analysis suite (ChemInnovation, CA).

Chain of HRH1 (P35367 whole entry): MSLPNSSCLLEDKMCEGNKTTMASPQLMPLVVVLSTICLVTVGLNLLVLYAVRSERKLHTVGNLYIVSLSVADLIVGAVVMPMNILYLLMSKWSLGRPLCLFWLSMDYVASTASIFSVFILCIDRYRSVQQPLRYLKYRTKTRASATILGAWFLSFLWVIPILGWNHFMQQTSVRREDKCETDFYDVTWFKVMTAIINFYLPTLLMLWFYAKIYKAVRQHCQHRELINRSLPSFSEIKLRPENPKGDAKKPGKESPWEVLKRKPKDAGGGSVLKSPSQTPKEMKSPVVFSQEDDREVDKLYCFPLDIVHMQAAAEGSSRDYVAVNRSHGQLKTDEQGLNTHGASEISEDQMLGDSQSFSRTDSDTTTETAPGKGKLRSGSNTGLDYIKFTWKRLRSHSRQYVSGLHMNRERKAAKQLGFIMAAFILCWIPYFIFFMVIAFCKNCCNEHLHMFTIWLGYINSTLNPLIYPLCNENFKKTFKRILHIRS
Chain of ADRB2 (P07550 whole entry): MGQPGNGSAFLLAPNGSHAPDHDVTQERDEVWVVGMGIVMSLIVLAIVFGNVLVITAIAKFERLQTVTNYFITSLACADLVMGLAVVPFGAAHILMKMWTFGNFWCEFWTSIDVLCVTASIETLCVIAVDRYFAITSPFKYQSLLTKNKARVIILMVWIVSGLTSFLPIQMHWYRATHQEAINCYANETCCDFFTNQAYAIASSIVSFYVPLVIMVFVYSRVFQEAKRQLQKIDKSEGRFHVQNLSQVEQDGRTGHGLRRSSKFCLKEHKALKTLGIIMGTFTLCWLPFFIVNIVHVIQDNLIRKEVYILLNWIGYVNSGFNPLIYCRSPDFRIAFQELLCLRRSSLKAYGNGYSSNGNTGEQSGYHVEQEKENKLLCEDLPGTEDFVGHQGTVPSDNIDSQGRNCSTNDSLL
Chain of HRH2 (P25021 whole entry): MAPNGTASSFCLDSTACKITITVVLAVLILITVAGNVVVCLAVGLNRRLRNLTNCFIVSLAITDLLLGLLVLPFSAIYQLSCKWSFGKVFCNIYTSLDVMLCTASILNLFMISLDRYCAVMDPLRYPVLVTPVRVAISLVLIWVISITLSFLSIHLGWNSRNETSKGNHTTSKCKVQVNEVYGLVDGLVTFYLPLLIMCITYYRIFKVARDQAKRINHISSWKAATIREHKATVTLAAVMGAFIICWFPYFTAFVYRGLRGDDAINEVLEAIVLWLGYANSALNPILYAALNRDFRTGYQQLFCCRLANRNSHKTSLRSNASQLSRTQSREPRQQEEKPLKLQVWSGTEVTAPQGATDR
Chain of OPRM1 (P35372 whole entry): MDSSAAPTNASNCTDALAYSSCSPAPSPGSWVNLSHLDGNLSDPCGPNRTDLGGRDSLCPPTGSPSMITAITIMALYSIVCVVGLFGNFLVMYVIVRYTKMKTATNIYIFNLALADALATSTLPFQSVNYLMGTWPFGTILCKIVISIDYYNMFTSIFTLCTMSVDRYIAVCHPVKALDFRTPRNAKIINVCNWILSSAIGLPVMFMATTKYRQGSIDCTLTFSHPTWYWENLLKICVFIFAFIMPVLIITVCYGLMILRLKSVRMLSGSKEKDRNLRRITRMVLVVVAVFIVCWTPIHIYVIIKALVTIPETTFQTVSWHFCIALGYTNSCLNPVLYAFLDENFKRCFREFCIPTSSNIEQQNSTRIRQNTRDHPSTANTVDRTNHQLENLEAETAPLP
Chain of ADRB1 (P08588 whole entry): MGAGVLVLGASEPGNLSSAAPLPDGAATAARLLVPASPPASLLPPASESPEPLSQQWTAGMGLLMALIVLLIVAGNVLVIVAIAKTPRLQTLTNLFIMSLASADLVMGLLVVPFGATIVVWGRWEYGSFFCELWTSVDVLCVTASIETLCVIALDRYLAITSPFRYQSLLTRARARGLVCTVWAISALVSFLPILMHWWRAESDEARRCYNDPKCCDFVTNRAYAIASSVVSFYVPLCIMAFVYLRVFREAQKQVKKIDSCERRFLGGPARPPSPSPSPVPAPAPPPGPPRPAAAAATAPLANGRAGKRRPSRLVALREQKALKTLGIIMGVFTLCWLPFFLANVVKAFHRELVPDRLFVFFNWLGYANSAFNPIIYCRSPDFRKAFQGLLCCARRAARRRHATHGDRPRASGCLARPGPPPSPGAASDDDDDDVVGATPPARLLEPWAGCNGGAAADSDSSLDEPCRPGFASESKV
Chain of GABAA (P14867 28-456): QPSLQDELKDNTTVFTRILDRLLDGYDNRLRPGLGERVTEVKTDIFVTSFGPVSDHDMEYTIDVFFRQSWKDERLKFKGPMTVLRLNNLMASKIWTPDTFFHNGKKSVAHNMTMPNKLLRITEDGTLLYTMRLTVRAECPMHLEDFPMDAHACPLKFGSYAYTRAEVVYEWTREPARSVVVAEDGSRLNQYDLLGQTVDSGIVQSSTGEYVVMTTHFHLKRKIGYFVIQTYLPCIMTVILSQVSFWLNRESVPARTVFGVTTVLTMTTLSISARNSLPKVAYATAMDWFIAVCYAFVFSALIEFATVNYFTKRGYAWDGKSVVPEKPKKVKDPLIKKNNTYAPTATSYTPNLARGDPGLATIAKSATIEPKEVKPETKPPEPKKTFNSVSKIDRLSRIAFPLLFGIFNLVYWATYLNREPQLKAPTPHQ
Chain of GABAA (P47870 26-512): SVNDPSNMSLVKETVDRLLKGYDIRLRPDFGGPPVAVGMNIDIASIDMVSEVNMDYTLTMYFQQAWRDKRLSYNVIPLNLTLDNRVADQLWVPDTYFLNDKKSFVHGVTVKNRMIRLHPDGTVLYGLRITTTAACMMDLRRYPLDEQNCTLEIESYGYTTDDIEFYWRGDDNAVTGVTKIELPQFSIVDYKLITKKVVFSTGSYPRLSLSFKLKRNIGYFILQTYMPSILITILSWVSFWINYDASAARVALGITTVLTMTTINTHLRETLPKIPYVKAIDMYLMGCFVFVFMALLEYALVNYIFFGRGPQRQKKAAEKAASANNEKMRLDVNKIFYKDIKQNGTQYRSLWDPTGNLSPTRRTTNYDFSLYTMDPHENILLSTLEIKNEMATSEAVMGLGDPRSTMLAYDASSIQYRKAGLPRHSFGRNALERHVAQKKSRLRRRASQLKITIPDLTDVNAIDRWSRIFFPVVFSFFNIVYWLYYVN
Chain of GABAA (P18507 40-475): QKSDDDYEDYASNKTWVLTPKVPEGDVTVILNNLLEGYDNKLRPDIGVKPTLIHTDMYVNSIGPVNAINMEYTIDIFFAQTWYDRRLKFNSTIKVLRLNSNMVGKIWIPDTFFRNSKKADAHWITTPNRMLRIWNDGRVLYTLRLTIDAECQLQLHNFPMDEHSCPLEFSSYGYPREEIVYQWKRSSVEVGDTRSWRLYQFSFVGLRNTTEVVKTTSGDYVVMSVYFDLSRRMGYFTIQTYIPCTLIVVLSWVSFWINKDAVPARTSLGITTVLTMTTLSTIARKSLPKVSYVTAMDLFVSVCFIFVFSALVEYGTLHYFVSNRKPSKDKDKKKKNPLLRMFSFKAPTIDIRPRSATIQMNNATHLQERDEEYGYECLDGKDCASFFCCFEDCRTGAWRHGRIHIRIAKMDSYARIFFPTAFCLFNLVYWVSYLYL

Row | Structure (SMILES) | EC50 ([1]; Calcium Flux EDNRA Agonist) | Emax [6] | EC50 [7] | Emax [7] | EC50 [8] | Emax [8] | IC50 [9] | Emax [9] | IC50 [10] | Emax [10] | EC50 [11] | Emax [11] | further results
1 | CC(C)(C)c1ccc(C#CC(O)c2ccccc2)cc1 (racemic) [Compound 3.3, rac-3-(4-(tert-butyl)phenyl)-1-phenylprop-2-yn-1-ol] | > 10 µM | 0% | > 10 µM | 0% | > 10 µM | 0% | 4.3 µM | 90.1% | > 10 µM | 13% | > 10 µM | 0% | Emax [1]: 0%; EC50 [2]: > 10 µM; Emax [2]: 0%; EC50 [3]: > 10 µM; Emax [3]: 1.9%; EC50 [4]: > 10 µM; Emax [4]: 2.2%; IC50 [5]: > 10 µM; Emax [5]: 2.2%
2 | Clc1cccc(C#Cc2n[nH]c3ncccc23)c1 [Compound 10.1, 3-((3-chlorophenyl)ethynyl)-1H-pyrazolo[3,4-b]pyridine] | > 10 µM | 1.3% | > 10 µM | 9.9% | > 10 µM | 20.7% | > 10 µM | 0% | > 10 µM | 0% | > 10 µM | 2.2% | Emax ([1]; Calcium Flux EDNRA Agonist): 1.8%; Emax ([2]; Calcium Flux HRH1 Agonist): 0%; EC50 ([2]; Calcium Flux HRH1 Agonist, read-out: RC50, result type EC50): > 10 µM; Emax ([3]; cAMP ADRB2 Agonist): 0.3%; EC50 ([3]; cAMP ADRB2 Agonist, read-out: RC50, result type EC50): > 10 µM; Emax ([4]; cAMP HRH2 Agonist): 0.4%; EC50 ([4]; cAMP HRH2 Agonist, read-out: RC50, result type EC50): > 10 µM; Emax ([5]; cAMP ADRB1 Antagonist): 40.3%; IC50 ([5]; cAMP ADRB1 Antagonist, read-out: RC50, result type IC50): > 10 µM
